Among the data in patent US20100120798A1, “SUBSTITUTED PIPERIDINES CONTAINING A HETEROARYLAMIDE OR HETEROARYLPHENYL MOIETY” (ASTEX THERAPEUTICS LIMITED, priority 2006, published 2010) are IC50 values, retold here.

The nature of assay [1]: In vitro MDA-MB-468 human breast adenocarcinoma GSK-3 phosphorylation assay. Format: cell-based. The settings on record: mean IC50, MDA-MB-468 cells, 2 hours with compound, phospho-GSK-3β. The text has this: This assay determines the ability of test compounds to inhibit phosphorylation of Serine-9 residue in Glycogen Synthase Kinase-3beta (GSK-3β) as a surrogate marker of cellular PKB (Akt) activity, as assessed using Acumen Explorer Fluorescent Plate-Reader technology. A MDA-MB-468 human breast adenocarcinoma cell line (LGC Promochem, Teddington, Middlesex, UK, Catalogue No. HTB-132) was routinely maintained in Dulbecco's modified Eagle's growth medium (DMEM; Invitrogen Limited, Paisley, UK Catalogue No. 11966-025) containing 10% heat-inactivated foetal calf serum (FCS; Sigma, Poole, Dorset, UK, Catalogue No. F0392) and 1% L-glutamine (Gibco, Catalogue No. 25030-024) at 37° C. with 5% CO2 up to a confluency of 70-90%.
For the phosphorylation assay, the cells were detached from the culture flask using Trypsin-EDTA (Invitrogen Limited, Catalogue No. 25300-062) and seeded into the wells of a black transparent-bottom Corning Costar Polystyrene 96 well plate (Fisher Scientific UK, Loughborough, Leicestershire, UK; Catalogue No. 3904 and DPS-130-020K) at a density of 5000 cells per well in 100 μl of complete growth media. The cells were incubated overnight at 37° C. with 5% CO2 to allow them to adhere.
On day 2, the cells were treated with test compounds and incubated for 2 hours at 37° C. with 5% CO2. Test compounds were prepared as 10 mM stock solutions in DMSO and dosed directly to required concentration into test wells using non-contact (acoustic dispensing of multiple 2.5 nl droplets directly into assay wells) ECHO dosing technology (Labcyte Inc. Sunnyvale, Calif., USA). Each plate contained control wells without test compound.
20 μl of fixing buffer (Phosphate Buffered Saline (PBS) containing 10% formaldehyde; Sigma; Catalogue No. F1635) was then added to each well to give a final well concentration 1.6%. Plates were then incubated for 30 minutes at room temperature prior to the fixative being removed. Each well was washed once with 250 μl of PBS and then 50 μl PBS added to each well. PBS was then aspirated and cells permeabilised and blocked by incubating each well with 50 μl of permeabilisation/blocking buffer (PBS containing 0.5% Tween 20 (Sigma; Catalogue No. P5927) and 5% Marvel Milk Powder (Andrews Pharmacy Ltd, Macclesfield, Cheshire, UK; Catalogue No. APC100199)) for 1 hour at room temperature prior to staining.
Following removal of Perm/Block buffer, 50 μl of primary anti-phospho-GSK-3β antibody (Cell Signalling Technology (New England Biolabs (Uk) Ltd.), Hitchin, Hertfordshire, UK; Catalogue No. 9336 diluted 1:400 in Blocking buffer (PBS containing 5% Marvel and 0.05% Tween/Polysorbate 20) was added to each well and incubated overnight at 4° C.
Each well was washed three times in 250 μl of wash buffer (PBS containing 0.05% polysorbate 20), and cells incubated for 1 hour at room temperature with 50 μl of secondary fluorescently-labelled anti-rabbit Alexa Fluor 488 antibody (Molecular Probes, Invitrogen Limited, Catalogue No. A11008) diluted 1:750 in blocking buffer. Plates were washed three times in 250 μl of wash buffer and stored containing 50 μl of PBS at 4° C. until required.
Plates were analysed using an Acumen Explorer Plate-reader to quantify level of fluorescent signal that represents quantity of phosphorylated-GSK-3β.
IC50 calculation—IC50 is the concentration of compound required to give 50% effect over the range of activity affected by the compound, between maximum (no compound) and minimum (excess level of compound) response control data. IC50 values were determined by fitting background corrected, dose response assay data to a 4 parameter logistic curve fit equation model with the minimum response set to zero. This was done using an in-house developed algorithm within the Origin graphing software package (OriginLab Corporation, Northampton, Mass., USA). […]

In assay [2] the target is hERG K+ ion channel (Homo sapiens, UniProt Q12809). Description: hERG activity. Format: cell-based. The note with it: assay of Bridgland-Taylor et al.; read-out: IC50 against hERG K+ ion channel. The text has this: The activity of compounds of the invention against the hERG K^+ ion channel can be determined using the assay described in the article by M. H. Bridgland-Taylor et al., Journal of Pharmcaological and Toxicological Methods, 54 (2006), 189-199.
Sequence of hERG K+ ion channel (Q12809 whole entry): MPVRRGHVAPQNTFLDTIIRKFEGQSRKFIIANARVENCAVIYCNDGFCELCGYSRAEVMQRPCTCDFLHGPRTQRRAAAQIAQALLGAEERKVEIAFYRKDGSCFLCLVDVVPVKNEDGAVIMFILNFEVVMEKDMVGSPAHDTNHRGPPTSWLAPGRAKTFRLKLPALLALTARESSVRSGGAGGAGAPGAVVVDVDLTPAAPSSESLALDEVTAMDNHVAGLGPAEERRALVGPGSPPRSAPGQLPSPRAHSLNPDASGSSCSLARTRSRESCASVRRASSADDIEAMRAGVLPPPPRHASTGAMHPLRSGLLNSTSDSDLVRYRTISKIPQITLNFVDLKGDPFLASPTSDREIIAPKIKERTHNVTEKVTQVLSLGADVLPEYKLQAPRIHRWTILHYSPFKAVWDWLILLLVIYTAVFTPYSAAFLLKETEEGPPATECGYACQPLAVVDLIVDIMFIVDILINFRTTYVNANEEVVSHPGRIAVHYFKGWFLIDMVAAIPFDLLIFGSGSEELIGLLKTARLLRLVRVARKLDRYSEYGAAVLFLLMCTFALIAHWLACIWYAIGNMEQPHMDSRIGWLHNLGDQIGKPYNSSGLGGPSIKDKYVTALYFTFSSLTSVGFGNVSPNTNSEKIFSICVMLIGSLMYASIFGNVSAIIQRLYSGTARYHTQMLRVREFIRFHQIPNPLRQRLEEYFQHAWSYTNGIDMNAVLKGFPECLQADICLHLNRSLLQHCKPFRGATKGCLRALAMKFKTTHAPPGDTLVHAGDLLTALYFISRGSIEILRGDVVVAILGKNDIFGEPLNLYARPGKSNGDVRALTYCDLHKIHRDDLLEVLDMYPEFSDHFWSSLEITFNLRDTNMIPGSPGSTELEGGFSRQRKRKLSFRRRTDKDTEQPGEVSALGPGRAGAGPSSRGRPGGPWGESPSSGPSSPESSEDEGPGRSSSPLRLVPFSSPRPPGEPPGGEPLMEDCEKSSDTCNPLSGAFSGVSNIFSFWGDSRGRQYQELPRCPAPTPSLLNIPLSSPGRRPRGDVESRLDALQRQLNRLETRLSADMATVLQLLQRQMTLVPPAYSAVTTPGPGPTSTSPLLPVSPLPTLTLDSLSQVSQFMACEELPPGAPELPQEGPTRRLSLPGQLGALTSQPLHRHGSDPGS
For orientation: hERG is a cardiac potassium channel; its block is linked to QT prolongation.

pIC50: −log10 of the molar value.

The term pIC50 denotes the IC50 on a negative log10 scale, so that one unit is a factor of ten. `NCC1(C(=O)NCc2ccc(Cl)nc2)CCN(c2ncnc3[nH]ccc23)CC1` [Example 1, 4-Aminomethyl-1-(7H-pyrrolo[2,3-d]pyrimidin-4-yl)-piperidine-4-carboxylic acid (6-chloro-pyridin-3-ylmethyl)-amide]: the pIC50 in assay [1] was 7.23; in assay [2], below 4.49. In the same order, the values of `NC1(C(=O)NCc2ccc(Cl)nc2)CCN(c2ncnc3[nH]ccc23)CC1` [Example 4, 4-Amino-1-(7H-pyrrolo[2,3-d]pyrimidin-4-yl)-piperidine-4-carboxylic acid (6-chloro-pyridin-3-ylmethyl)amide] are 6.06 and below 4.49. Take `Cn1cc(-c2cccc(C3(CN)CCN(c4ncnc5[nH]cnc45)CC3)c2)cn1` [Example 6, C-[4-[3-(1-Methyl-1H-pyrazol-4-yl)-phenyl]-1-(9H-purin-6-yl)-piperidin-4-yl]-methylamine]: the pIC50 was 7.51 in assay [1] and below 4.49 in assay [2].

On to `NCC1(C(=O)Nc2ccc(C(F)(F)F)nc2)CCN(c2ncnc3[nH]ccc23)CC1` [Example 82, 4-(Aminomethyl)-1-(7H-pyrrolo[2,3-d]pyrimidin-4-yl)-N-(6-(trifluoromethyl)pyridin-3-yl)piperidine-4-carboxamide], for which the pIC50 in assay [1] was 7.27.
